# Assay results reported in patent US20260365670A1, “EGFR INHIBITORS AND USES THEREOF” (DIZAL (JIANGSU) PHARMACEUTICAL CO., LTD., priority 2022, published 2026).
# Like-named read-outs stand apart in the source and are kept apart here.
# Columns and labels:
# EGFR Exon19Del = molecular target: T1, EGFR Exon19Del (Homo sapiens, UniProt P00533, DEL746-750); assay: Inhibition of EGFR Exon19Del biochemical enzymatic activity (HTRF); conditions: read-out: IC50 @Del19
# T1 construct: purchased Carna Bio
# How it was run: (§1)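 For IC50 determination by four-parameter logistic fit, EDTA-quenched 1 h room-temperature reactions (1 mM ATP, 1 μM TK Substrate-biotin) were read by HTRF. The 665/615 nm emission ratio after 320 nm excitation served as the activity signal.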
# EGFR Exon19Del/T790M = molecular target: T2, EGFR Exon19Del/T790M (Homo sapiens, UniProt P00533, DEL746-750/T790M); assay: Inhibition of EGFR Exon19Del/T790M biochemical enzymatic activity (HTRF); conditions: 1 mM ATP
# T2 construct: purchased Carna Bio
# How it was run: as §1
# [1] = molecular target: T3, EGFR[T790M/C797S/d746-750] (Homo sapiens, UniProt P00533, C797S/DEL746-750/T790M); assay: Inhibition of EGFR[T790M/C797S/d746-750] biochemical enzymatic activity (HTRF)
# T3 construct: purchased Carna Bio
# How it was run: as §1
# [2] = test system: Ba/F3 cells expressing EGFR mutations; assay: Cell proliferation assay, Ba/F3 cells expressing EGFR mutations (CellTiter-Glo, 72 hours); assay type: cell-based
# How it was run: (§2)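 Ba/F3 cells carrying EGFR mutants (5000/well) or PC-9 cells (500/well) in RPMI1640 were dosed with compound series after overnight attachment and grown 72 h. Viability read by CellTiter-Glo, with day-0 counts subtracted; GI50 from curve fits of % proliferation versus DMSO control.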
# EGFR L858R/T790M = molecular target: T4, EGFR L858R/T790M (Homo sapiens, UniProt P00533, L858R/T790M); assay: Inhibition of EGFR L858R/T790M biochemical enzymatic activity (HTRF); conditions: 1 mM ATP
# T4 construct: purchased Carna Bio
# How it was run: as §1
# EGFR wild type = molecular target: T5, EGFR wild type (Homo sapiens, UniProt P00533); assay: Inhibition of EGFR wild type biochemical enzymatic activity (HTRF); conditions: 1 mM ATP
# T5 construct: purchased Carna Bio
# How it was run: as §1
# EGFR[T790M/C797S/L858R] = molecular target: T6, EGFR[T790M/C797S/L858R] (Homo sapiens, UniProt P00533, C797S/L858R/T790M); assay: Inhibition of EGFR[T790M/C797S/L858R] biochemical enzymatic activity (HTRF); conditions: 1 mM ATP
# T6 construct: purchased Carna Bio
# How it was run: as §1
# PC-9 = assay: Cell proliferation assay, PC-9 cells (CellTiter-Glo, 72 hours); assay type: cell-based; conditions: PC9 cells, read-out: GI50 PC9
# How it was run: as §2
# EGFR (C797S L858R) = molecular target: T7, EGFR (C797S L858R) (Homo sapiens, UniProt P00533, C797S/L858R); assay: Inhibition of EGFR (C797S L858R) biochemical enzymatic activity (HTRF); conditions: 1 mM ATP
# T7 construct: purchased signalchem
# How it was run: as §1
# EGFR (d746-750 C797S) = molecular target: T8, EGFR (d746-750 C797S) (Homo sapiens, UniProt P00533, C797S/DEL746-750); assay: Inhibition of EGFR (d746-750 C797S) biochemical enzymatic activity (HTRF); conditions: 1 mM ATP
# T8 construct: purchased signalchem
# How it was run: as §1
# EGFR L858R = molecular target: T9, EGFR L858R (Homo sapiens, UniProt P00533, L858R); assay: Inhibition of EGFR L858R biochemical enzymatic activity (HTRF); conditions: 1 mM ATP
# T9 construct: purchased Carna Bio
# How it was run: as §1
# A-431 = assay: Cell proliferation assay, A-431 cells (GI50, Table 6); assay type: cell-based; conditions: Homo sapiens, A-431, A-431 cells
# [3] = EGFR Del19, 1 mM ATP, 1 h, room temperature
# [4] = EGFR Del19-T790M, 1 h, room temperature, read-out: IC50 (nM) @Del19-T790M
# [5] = EGFR T790M-C797S-Del19, 1 mM ATP, 1 h, room temperature, read-out: IC50 (nM) @T790M - C797S - Del19
# [6] = Mus musculus, BaF3, 72 h, BaF3 cells, EGFR DEL19 - C797S, read-out: GI50 DEL19 - C797S/BaF3
# [7] = Mus musculus, BaF3, 72 h, BaF3 cells, EGFR DEL19 - T790-C797S, read-out: GI50 DEL19 - T790-C797S/BaF3
# [8] = Mus musculus, BaF3, 72 h, BaF3 cells, EGFR L858R - C797S, read-out: GI50 L858R - C797S/BaF3
# [9] = Mus musculus, BaF3, 72 h, BaF3 cells, EGFR L858R - T790-C797S, read-out: GI50 L858R - T790-C797S/BaF3
# [10] = Mus musculus, BaF3, 72 h, BaF3 cells, EGFR L858R - T790M, read-out: GI50 L858R - T790M/BaF3
# [11] = Mus musculus, BaF3, 72 h, BaF3 cells, EGFR L858R, read-out: GI50 L858R/BaF3
# [12] = Mus musculus, BaF3, 72 h, EGFR DEL19 - T790M, read-out: GI50 DEL19 - T790M
# [13] = EGFR L858R-T790M, 1 h, room temperature, read-out: IC50 (nM) @L858R-T790M
# [14] = EGFR WT, 1 h, room temperature, read-out: IC50 (nM) @WT
# [15] = EGFR T790M-C797S-L858R, 1 h, room temperature, read-out: IC50 (nM) @T790M- C797S - L858R
# [16] = EGFR L858-C797S, 1 h, room temperature, read-out: IC50 (nM) @L858-C797S
# [17] = EGFR Del19-C797S, 1 h, room temperature, read-out: IC50 (nM) @Del19-C797S
# [18] = 1 h, room temperature, read-out: IC50 (nM) @L858R
# [19] = EGFR Exon19Del, 1 mM ATP, 1 h at room temperature
# [20] = EGFR Exon19Del/T790M, 1 h at room temperature, read-out: IC50 @Del19-T790M
# [21] = EGFR[T790M/C797S/d746-750], 1 mM ATP, 1 h at room temperature, read-out: IC50 @T790M - C797S - Del19
# [22] = EGFR L858R/T790M, 1 h at room temperature, read-out: IC50 @L858R-T790M
# [23] = EGFR wild type, 1 h at room temperature, read-out: IC50 @WT
# [24] = EGFR[T790M/C797S/L858R], 1 h at room temperature, read-out: IC50 @T790M- C797S - L858R
# [25] = EGFR (C797S L858R), 1 h at room temperature, read-out: IC50 @L858-C797S
# [26] = EGFR (d746-750 C797S), 1 h at room temperature, read-out: IC50 @Del19-C797S
# [27] = 1 h at room temperature, read-out: IC50 @L858R
# T4 sequence (P00533 25-1210 T790M/L858R): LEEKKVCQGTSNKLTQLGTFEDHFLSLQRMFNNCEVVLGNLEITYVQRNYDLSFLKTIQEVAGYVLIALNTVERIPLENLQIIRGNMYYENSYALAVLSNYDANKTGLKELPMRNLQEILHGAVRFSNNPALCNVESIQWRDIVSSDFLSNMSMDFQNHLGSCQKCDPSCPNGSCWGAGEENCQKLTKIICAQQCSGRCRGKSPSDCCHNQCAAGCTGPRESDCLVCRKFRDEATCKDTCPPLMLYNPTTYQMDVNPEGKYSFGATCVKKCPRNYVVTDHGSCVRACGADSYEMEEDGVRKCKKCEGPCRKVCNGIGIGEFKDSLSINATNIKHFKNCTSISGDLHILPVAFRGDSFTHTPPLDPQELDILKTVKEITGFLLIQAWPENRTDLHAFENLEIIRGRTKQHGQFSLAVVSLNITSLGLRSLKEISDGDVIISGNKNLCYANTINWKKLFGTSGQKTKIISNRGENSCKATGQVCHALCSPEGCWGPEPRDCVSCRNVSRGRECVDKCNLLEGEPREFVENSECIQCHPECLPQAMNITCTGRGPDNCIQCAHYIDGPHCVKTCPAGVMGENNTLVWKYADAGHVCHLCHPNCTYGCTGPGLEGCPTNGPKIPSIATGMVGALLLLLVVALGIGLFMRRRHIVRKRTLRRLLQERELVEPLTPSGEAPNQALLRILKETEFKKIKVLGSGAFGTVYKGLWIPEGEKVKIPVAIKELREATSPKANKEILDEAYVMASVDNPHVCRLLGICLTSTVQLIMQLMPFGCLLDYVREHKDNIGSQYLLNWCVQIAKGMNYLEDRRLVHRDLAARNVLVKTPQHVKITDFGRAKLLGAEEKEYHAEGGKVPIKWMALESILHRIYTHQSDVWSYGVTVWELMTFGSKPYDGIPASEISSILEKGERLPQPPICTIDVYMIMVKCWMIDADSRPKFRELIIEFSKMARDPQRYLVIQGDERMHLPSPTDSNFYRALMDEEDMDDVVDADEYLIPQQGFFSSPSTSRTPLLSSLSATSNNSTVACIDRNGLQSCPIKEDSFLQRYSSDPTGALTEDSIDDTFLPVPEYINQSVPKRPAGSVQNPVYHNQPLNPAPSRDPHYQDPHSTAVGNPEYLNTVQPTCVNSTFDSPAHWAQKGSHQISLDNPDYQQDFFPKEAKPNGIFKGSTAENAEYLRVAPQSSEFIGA
# T2 sequence (P00533 with tags, fused parts or gaps DEL746-750/T790M limits assumed): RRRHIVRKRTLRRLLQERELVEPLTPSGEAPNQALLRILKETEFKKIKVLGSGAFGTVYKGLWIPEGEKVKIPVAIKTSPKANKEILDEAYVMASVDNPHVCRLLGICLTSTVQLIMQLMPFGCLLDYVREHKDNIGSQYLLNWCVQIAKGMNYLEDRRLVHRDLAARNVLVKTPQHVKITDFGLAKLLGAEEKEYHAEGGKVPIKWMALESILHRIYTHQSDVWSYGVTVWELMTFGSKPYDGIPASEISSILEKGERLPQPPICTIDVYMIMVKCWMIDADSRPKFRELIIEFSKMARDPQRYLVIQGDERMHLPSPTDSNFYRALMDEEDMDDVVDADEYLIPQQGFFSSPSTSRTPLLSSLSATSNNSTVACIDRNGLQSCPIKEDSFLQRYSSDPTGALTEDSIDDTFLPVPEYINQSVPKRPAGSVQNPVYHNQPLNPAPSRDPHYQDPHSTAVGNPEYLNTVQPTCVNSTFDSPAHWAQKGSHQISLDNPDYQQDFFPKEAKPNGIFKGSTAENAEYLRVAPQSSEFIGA
# T9 sequence (P00533 25-1210 L858R): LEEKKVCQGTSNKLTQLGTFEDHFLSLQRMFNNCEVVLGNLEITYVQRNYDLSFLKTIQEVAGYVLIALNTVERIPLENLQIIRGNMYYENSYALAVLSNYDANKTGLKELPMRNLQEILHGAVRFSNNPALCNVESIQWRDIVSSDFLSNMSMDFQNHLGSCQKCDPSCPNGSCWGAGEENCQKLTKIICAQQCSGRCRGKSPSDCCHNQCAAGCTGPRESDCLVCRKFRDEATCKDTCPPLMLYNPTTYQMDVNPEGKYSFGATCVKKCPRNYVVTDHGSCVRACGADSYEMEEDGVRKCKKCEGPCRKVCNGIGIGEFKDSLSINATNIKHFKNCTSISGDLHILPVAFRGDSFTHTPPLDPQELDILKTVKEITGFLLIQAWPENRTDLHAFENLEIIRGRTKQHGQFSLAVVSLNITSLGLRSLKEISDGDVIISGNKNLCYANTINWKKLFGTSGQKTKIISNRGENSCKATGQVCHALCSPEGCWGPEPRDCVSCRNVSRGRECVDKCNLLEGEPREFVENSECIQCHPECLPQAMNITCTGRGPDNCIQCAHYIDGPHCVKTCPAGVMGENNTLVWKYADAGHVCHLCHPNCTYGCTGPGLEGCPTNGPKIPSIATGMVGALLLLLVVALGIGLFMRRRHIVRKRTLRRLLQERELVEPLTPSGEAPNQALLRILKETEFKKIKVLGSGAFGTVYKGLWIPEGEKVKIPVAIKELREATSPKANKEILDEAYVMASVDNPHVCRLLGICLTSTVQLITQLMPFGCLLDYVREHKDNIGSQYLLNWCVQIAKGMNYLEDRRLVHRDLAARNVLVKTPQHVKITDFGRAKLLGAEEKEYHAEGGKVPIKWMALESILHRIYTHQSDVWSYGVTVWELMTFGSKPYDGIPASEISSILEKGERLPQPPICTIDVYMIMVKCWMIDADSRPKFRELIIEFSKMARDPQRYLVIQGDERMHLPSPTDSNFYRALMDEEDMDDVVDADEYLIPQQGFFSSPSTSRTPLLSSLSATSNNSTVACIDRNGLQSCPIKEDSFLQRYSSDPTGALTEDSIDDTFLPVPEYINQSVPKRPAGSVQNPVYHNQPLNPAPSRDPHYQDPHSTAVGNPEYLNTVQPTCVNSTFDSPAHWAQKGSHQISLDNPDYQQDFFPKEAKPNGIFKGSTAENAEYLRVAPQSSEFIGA
# T3 sequence (P00533 with tags, fused parts or gaps DEL746-750/T790M/C797S limits assumed): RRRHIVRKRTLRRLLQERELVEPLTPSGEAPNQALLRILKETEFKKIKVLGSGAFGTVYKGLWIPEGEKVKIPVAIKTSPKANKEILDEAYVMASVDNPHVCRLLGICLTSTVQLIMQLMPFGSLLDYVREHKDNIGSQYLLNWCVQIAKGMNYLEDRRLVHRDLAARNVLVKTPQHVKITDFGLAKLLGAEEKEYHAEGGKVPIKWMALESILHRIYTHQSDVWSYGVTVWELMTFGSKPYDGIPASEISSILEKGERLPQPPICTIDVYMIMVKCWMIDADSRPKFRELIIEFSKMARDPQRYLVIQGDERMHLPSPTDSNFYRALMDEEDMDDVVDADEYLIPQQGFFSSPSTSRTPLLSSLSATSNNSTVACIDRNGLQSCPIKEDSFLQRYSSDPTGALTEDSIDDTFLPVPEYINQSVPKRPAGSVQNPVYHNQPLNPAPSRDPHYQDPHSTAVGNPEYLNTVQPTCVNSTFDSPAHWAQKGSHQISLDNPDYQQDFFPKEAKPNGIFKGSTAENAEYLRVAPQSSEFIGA
# T5 sequence (P00533 25-1210): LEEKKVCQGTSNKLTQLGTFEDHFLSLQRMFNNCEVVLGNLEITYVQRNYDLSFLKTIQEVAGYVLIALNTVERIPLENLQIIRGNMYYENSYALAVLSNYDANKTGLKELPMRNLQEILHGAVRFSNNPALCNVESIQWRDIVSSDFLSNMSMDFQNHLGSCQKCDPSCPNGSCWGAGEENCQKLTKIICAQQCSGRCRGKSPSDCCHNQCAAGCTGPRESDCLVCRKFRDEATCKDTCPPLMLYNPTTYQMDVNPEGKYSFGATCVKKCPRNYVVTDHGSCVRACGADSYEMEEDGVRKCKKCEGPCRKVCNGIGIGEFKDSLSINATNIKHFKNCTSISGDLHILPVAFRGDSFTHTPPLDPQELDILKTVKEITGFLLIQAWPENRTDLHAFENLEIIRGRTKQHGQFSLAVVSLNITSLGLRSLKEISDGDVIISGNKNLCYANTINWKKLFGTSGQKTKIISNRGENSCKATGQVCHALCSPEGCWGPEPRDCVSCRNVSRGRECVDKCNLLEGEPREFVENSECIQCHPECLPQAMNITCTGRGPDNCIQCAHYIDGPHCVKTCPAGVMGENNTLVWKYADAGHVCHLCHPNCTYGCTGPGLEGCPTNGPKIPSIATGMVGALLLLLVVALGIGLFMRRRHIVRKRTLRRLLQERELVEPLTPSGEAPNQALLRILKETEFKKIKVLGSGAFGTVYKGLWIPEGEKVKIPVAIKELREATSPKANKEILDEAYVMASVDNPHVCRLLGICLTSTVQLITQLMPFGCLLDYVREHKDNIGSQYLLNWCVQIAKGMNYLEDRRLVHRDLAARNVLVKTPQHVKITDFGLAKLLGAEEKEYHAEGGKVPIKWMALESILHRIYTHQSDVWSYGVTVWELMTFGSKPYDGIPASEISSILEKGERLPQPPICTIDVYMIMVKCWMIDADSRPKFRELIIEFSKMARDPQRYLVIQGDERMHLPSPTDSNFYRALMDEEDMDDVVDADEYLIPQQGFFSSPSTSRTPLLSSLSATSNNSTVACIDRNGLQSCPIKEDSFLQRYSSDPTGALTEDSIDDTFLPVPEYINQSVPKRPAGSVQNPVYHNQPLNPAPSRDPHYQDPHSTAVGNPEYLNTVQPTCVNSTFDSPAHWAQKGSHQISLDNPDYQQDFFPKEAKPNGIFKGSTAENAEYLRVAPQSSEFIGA
IC50 (EGFR Exon19Del; [3]) [nM],IC50 (EGFR Exon19Del/T790M; [4]) [nM],"IC50 [1, 5] [nM]","GI50 [2, 6] [nM]","GI50 [2, 7] [nM]","GI50 [2, 8] [nM]","GI50 [2, 9] [nM]","GI50 [2, 10] [nM]","GI50 [2, 11] [nM]","GI50 [2, 12] [nM]",IC50 (EGFR L858R/T790M; [13]) [nM],IC50 (EGFR wild type; [14]) [nM],IC50 (EGFR[T790M/C797S/L858R]; [15]) [nM],"GI50 (PC-9; Homo sapiens, PC-9, 72 h) [nM]",IC50 (EGFR (C797S L858R); [16]) [nM],IC50 (EGFR (d746-750 C797S); [17]) [nM],IC50 (EGFR L858R; [18]) [nM],GI50 (A-431) [nM],IC50 (EGFR Exon19Del; [19]) [nM],IC50 (EGFR Exon19Del/T790M; [20]) [nM],Structure (SMILES),further results
2.8,2.9,3.2,2.6,26,14,30,50,9.6,22,5.1,216,6.1,112,4.9,1.7,6.2,529,–,–,"C[C@@H]1CCCOc2ccc(F)cc2-c2cc(cn(C)c2=O)C(=O)Nc2nc3ccc(N4CCN(C)CC4)cc3n2C1 [Example A110, (12R)-4-fluoro-12,27-dimethyl-17-(4-methylpiperazin-1-yl)-8-oxa-14,21,23,27-tetraazapentacyclo[23.3.1.0^{2,7}.0^{14,22}.0^{15,20}]nonacosa-1(29),2(7),3,5,15,17,19,21,25-nonaene-24,28-dione]",–
–,–,–,–,–,–,–,–,–,–,–,–,–,–,–,–,–,929,18,6.4,"Cc1cc2cc(n1)-c1cnn(C)c1OCCN1CC3CCC(C3)(C1)n1c(nc3ccc(N4CCC(N5CCOCC5)C4)cc31)NC2=O (single isomer, unassigned) [Example B44B]","IC50 [1, 21]: 4.3 nM; GI50 ([2]; BaF3 cells, EGFR DEL19 - C797S, read-out: GI50 DEL19 - C797S/BaF3): 2 nM; GI50 ([2]; BaF3 cells, EGFR DEL19 - T790-C797S, read-out: GI50 DEL19 - T790-C797S/BaF3): 2 nM; GI50 ([2]; BaF3 cells, EGFR L858R - C797S, read-out: GI50 L858R - C797S/BaF3): 12 nM; GI50 ([2]; BaF3 cells, EGFR L858R - T790-C797S, read-out: GI50 L858R - T790-C797S/BaF3): 2 nM; GI50 ([2]; BaF3 cells, EGFR L858R - T790M, read-out: GI50 L858R - T790M/BaF3): 2 nM; GI50 ([2]; BaF3 cells, EGFR L858R, read-out: GI50 L858R/BaF3): 15 nM; GI50 ([2]; EGFR DEL19 - T790M, read-out: GI50 DEL19 - T790M): 2 nM; IC50 (EGFR L858R/T790M; [22]): 13 nM; IC50 (EGFR wild type; [23]): > 5000 nM; IC50 (EGFR[T790M/C797S/L858R]; [24]): 4.9 nM; GI50 (PC-9): 13 nM; IC50 (EGFR (C797S L858R); [25]): 50 nM; IC50 (EGFR (d746-750 C797S); [26]): 8.1 nM; IC50 (EGFR L858R; [27]): 170 nM"
13,12,8.9,7.3,36,29,18,50,5.5,26,169,> 5000,52,34,71,9.9,95,4090,–,–,CN1CC2CN(c3ccc4nc5n(c4c3)C34CCC(CC3)CN(CCOc3c(cnn3C)-c3cc(cn(C)c3=O)C(=O)N5)C4)CC2C1 (stereo not drawn) [Example A126],–
–,–,–,3,2,35,4,9,22,2,–,–,–,33,–,–,–,3560,17,12,Cc1cc2cc(n1)-c1cnn(C)c1OCCN1CC3CCC(CC3)(C1)n1c(nc3ccc(N4CCC5(CC4)CCN5C)cc31)NC2=O [Example B30],"IC50 [1, 21]: 4.9 nM; IC50 (EGFR L858R/T790M; [22]): 11 nM; IC50 (EGFR wild type; [23]): > 5000 nM; IC50 (EGFR[T790M/C797S/L858R]; [24]): 5.6 nM; IC50 (EGFR (C797S L858R); [25]): 64 nM; IC50 (EGFR (d746-750 C797S); [26]): 8.7 nM; IC50 (EGFR L858R; [27]): 110 nM"
